Results published in US8580517B2, “Biosensor and use thereof to identify therapeutic drug molecules and molecules binding orphan receptors” (priority 2003, dated 2013).
Entries after “also recorded” stand apart in the source; their conditions may differ.

Assays:
Type in all cases: cell-based
[1] = molecular target: T1, M2 muscarinic acetylcholine receptors (Homo sapiens, UniProt P08172); test: G protein biosensor FRET (CY/CC) imaging in CHO cells stably expressing M2 receptor; conditions: for FRET signal intensity on addition of the molecule: 100 μM, α-CFP/β-YFPγ biosensor; for FRET signal intensity on repeated addition of agonist and antagonist: Go biosensor, same cell, repeated additions; for CC emission intensity / CY emission intensity: carbachol 100 μM, then atropine 100 μM
T1 construct: expressed in transfected cells
T1 sequence (P08172 1-466): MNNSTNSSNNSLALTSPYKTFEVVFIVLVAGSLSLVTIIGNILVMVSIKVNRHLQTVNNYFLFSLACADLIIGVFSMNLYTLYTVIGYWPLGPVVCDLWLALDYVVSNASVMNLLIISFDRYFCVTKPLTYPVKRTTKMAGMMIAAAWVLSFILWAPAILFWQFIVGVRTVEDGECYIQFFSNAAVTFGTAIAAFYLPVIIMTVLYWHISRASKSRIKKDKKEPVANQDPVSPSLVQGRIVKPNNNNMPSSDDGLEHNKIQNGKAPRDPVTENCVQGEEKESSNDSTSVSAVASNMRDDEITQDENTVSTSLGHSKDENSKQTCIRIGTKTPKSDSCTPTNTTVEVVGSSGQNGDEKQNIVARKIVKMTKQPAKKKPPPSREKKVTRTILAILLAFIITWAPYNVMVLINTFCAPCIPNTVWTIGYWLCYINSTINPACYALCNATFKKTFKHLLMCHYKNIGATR
Description: All were transferred to pDEST12.2 mammalian expression vectors following the manufacturer's instructions (Invitrogen). […] Competent CHO cells expressing M2 were competently transfected with three pDEST12.2 carrying αo-CFP, β1-YFP and γ5. Stable transfectants were selected with G418 and coexpressors were isolated by flow cytometry and confirmed by differential fluorescence microscopy.
(§1) Microscopy, image acquisition and FRET analysis (i.e. image capture, recording and analysis) were carried out as follows (generally following the illustration in FIG. 3). Cells were seeded on glass coverslips (25 mm #1 from Warner Instruments) in 35 mm dishes and cultured overnight for imaging. Coverslips containing cells were mounted in a perfusion chamber of 0.36 ml internal volume (RC-21BR from Warner Instrument Corporation, 1141 Dixwell Ave., Hamden, Conn. 06514) containing Hank's Buffered Saline Solution (HBSS) supplemented with 10 mM Hepes pH 7.4 and 1 mg glucose/ml. The perfusion chamber was stage-mounted in an upright Zeiss Axioscope fluorescence microscope.
(§2) Agonists, antagonists or a molecule in the HBSS solution were injected manually (or using an automated valve based system driven pneumatically or by gravity) at a rate of about 2 ml/min for 45 seconds through a secondary inlet of the chamber. Images were acquired at the indicated times. Cells were illuminated with a 50 W mercury lamp (or a 100 W mercury lamp) through a 20% neutral density filter. The filter wheels were run by a Sutter Lambda 10-2 device, a high speed excitation filter wheel that utilizes a direct stepper motor. (Sutter Instrument Company, 51 Digital Drive, Novato, Calif. 94949). In an aspect, power to operate instruments such as the microscope, pumps, motor(s), camera(s), computer(s) control system is supplied by 110 volt electric which is supplied to the instruments and turned on at the startup.
Filters were used in combination with appropriate beam splitters in the filter cube. For CC (cyan) images: D436/20 excitation (x), D480/40 emission (m) and 455DCLP beam splitter; for CY (FRET) images: D436/20x, D535/30m and 455DCLP beam splitter; for YY (yellow) images: the filters D500/20x, D535/30m and 515LP beam splitter. All filters were from Chroma. Images were acquired using a Hamamatsu CCD Orca-ER Camera with 4×4 binning. Exposure times were 1 sec for each CC or CY image. Images were acquired and captured of the FRET signal every 15 sec for a total of 4 or 6 minutes and stored as 12-bit gray scale image-stacks using MetaVue/Metamorph software (Universal Imaging Corporation, 402 Boot Road, Downington, Pa. 19335). Both camera and filter wheels were controlled peripherally using MetaVue from a Dell Computer Workstation (Dell Computer, Houston, Tex.) Images were processed using Metamorph (Universal Imaging) in a Dell Computer Workstation. […] Average intensities in these regions were measured. Maximum intensity per pixel in selected regions were ensured to be lower than the maximum value on the available 12-bit gray scale (4095). Ratios of the CY over CC intensities from these regions were plotted to obtain the FRET profiles.
Agonist concentration dependence of the decrease in the FRET signal: Images (emission spectra) of live functional biosensor cells were captured and recorded as above for about six minutes. […] The regression lines were drawn using GraphPad (Prizm). The percentage of activation by submaximal doses was determined by the formula 100(Rx−Ro)/(Rm−Ro). Rx, Ro and Rm are the numerical values of the respective regression lines at the 210 second elapsed time point where Ro was the initial baseline, Rx was the submaximal response and Rm was the maximal response.

[2] = test system: human adenosine receptors; test: G protein biosensor FRET profile in biosensor cells expressing adenosine receptor; conditions: 50 μM
Description: as §1
as §2, with “(Sutter Instrument Company, 51 Digital Drive, Novato, Calif. 94949). In an aspect, power to operate instruments such as the microscope, pumps, motor(s), camera(s), computer(s) control system is supplied by 110 volt electric which is supplied to the instruments and turned on at the startup.” left out
(§3) Filters were used in combination with appropriate beam splitters in the filter cube. […] Average intensities in these regions were measured. […]

[3] = molecular target: T1, M2 muscarinic acetylcholine receptors; test: G protein biosensor FRET (CY/CC) imaging in CHO cells stably expressing M2 receptor; conditions: biosensor with CFP tagged α, YFP tagged γ, untagged β subunit
[4] = molecular target: T2, human serotonin receptors (Type 1A) (Homo sapiens, UniProt P08908); test: G protein biosensor FRET profile in biosensor cells expressing serotonin receptors
T2 construct: expressed in transfected cells; host or cells: Biosensor cells
T2 sequence (P08908 1-422): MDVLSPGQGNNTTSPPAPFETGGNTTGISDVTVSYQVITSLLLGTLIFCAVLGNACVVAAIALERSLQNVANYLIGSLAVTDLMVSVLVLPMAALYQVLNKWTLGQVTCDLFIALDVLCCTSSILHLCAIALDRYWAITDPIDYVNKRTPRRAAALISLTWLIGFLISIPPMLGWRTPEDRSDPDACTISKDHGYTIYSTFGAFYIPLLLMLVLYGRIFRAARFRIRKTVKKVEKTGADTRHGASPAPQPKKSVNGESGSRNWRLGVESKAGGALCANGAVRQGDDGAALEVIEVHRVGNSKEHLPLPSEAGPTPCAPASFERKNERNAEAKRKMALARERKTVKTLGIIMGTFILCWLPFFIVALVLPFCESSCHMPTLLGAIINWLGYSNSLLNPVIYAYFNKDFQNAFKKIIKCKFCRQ
Description: as §1
as §2, with “(Sutter Instrument Company, 51 Digital Drive, Novato, Calif. 94949). In an aspect, power to operate instruments such as the microscope, pumps, motor(s), camera(s), computer(s) control system is supplied by 110 volt electric which is supplied to the instruments and turned on at the startup.” left out
as §3

SMILES | FRET signal intensity on addition of the molecule [1] | FRET signal intensity on repeated addition of agonist and antagonist [1] | CC emission intensity [1] | CY emission intensity [1] | other results
CC(C)NCC(O)c1ccc(O)c(O)c1 (centres unmarked) [Isoproterenol, isoproterenol] | no effect on FRET signal intensity | – | – | – | –
OC[C@H]1O[C@@H](n2cnc3c(NC4CCCCC4)ncnc32)[C@H](O)[C@@H]1O [adenosine N6-Cyclohexyl] | – | – | – | – | FRET signal intensity on addition of agonist [2]: decreased the FRET signal intensity significantly
CN1[C@@H]2CC[C@H]1C[C@@H](OC(=O)C(CO)c1ccccc1)C2 (some centres unmarked) [atropine] | – | increases | CC emission intensity decreases | increases | carbachol-induced loss of FRET after pretreatment with antagonist ([1]; atropine 10 μM present, carbachol 100 μM added): no longer elicited the loss of FRET; FRET signal intensity on addition of antagonist after agonist ([1]; atropine 100 μM after carbachol 100 μM): FRET signal intensity increases strikingly
C[N+](C)(C)CCOC(N)=O [carbachol] | reduced FRET signal intensity; also recorded: FRET signal intensity decreases | decreases | CC emission intensity increases | CY emission intensity decreases | FRET signal intensity on addition of agonist [3]: decrease in FRET signal intensity
CC(C)(C)NCC(O)COc1cccc2[nH]c(C#N)cc12 (centres unmarked) [cyanopindolol] | – | – | – | – | FRET signal intensity on addition of antagonist after agonist ([4]; cyanopindolol 150 μM after serotonin 20 μM): increase in the FRET signal intensity
NCCc1c[nH]c2ccc(O)cc12 [serotonin] | – | – | – | – | FRET signal intensity on addition of agonist ([4]; 20 μM): decreased the FRET signal intensity significantly; also recorded: decrease in the FRET signal intensity
